Results: ChEMBL document CHEMBL3885881, “DrugMatrix”

Organism: Rattus norvegicus
Assay: DrugMatrix - Regimen: Daily Repeat
Format: toxicity, organism-based, Sprague-Dawley
Design: regimen Daily Repeat, gender Male, age 6-8 weeks
Details: in vivo, iv, 31 mg/kg, dose level Low, vehicle 100 % SALINE; for ABSOLUTE BASOPHIL / ABSOLUTE EOSINOPHIL / ABSOLUTE LYMPHOCYTE / ABSOLUTE MONOCYTE / ABSOLUTE SEGMENTED NEUTROPHIL / BASOPHIL / EOSINOPHIL / ERYTHROCYTE COUNT / HEMATOCRIT / HEMOGLOBIN / LEUKOCYTE COUNT / LYMPHOCYTE / MEAN CORPUSCULAR HEMOGLOBIN / MEAN CORPUSCULAR HEMOGLOBIN CONCENTRATION / MEAN CORPUSCULAR VOLUME / MONOCYTE / NEUTROPHIL / NUCLEATED RED BLOOD CELLS / PLATELET COUNT: tissue Blood; for ALANINE AMINOTRANSFERASE / ALBUMIN / ALKALINE PHOSPHATASE / ASPARTATE AMINOTRANSFERASE / BLOOD UREA NITROGEN / CARBON DIOXIDE / CHLORIDE / CHOLESTEROL / CREATINE PHOSPHOKINASE / CREATININE / GLUCOSE / LACTATE DEHYDROGENASE / LIPASE / PHOSPHORUS / POTASSIUM / SODIUM / TOTAL BILIRUBIN / TOTAL PROTEIN / URIC ACID: tissue Plasma

Cc1cn[nH]c1 [FOMEPIZOLE]
ABSOLUTE BASOPHIL (72 h, time 3 day): 0 CELLS/uL
ABSOLUTE EOSINOPHIL (72 h, time 3 day): 41 CELLS/uL
ABSOLUTE LYMPHOCYTE (72 h, time 3 day): 12783.33 CELLS/uL
ABSOLUTE MONOCYTE (72 h, time 3 day): 137 CELLS/uL
ABSOLUTE SEGMENTED NEUTROPHIL (72 h, time 3 day): 738.67 CELLS/uL
BASOPHIL (72 h, time 3 day): 0%
EOSINOPHIL (72 h, time 3 day): 0.33%
ERYTHROCYTE COUNT (72 h, time 3 day): 5.82 x10E6/uL
HEMATOCRIT (72 h, time 3 day): 35.33%
HEMOGLOBIN (72 h, time 3 day): 13.87 G/DL
LEUKOCYTE COUNT (72 h, time 3 day): 13.7 x10E3/uL
LYMPHOCYTE (72 h, time 3 day): 93.33%
MEAN CORPUSCULAR HEMOGLOBIN (72 h, time 3 day): 23.83 pg
MEAN CORPUSCULAR HEMOGLOBIN CONCENTRATION (72 h, time 3 day): 39.27 G/DL
MEAN CORPUSCULAR VOLUME (72 h, time 3 day): 60.67 fL
MONOCYTE (72 h, time 3 day): 1%
NEUTROPHIL (72 h, time 3 day): 5.33%
NUCLEATED RED BLOOD CELLS (72 h, time 3 day): 0 /100WBC
PLATELET COUNT (72 h, time 3 day): 1326.67 x10E3/uL
ALANINE AMINOTRANSFERASE (72 h, time 3 day): 46.33 u/L
ALBUMIN (72 h, time 3 day): 4.27 G/DL
ALKALINE PHOSPHATASE (72 h, time 3 day): 429.67 u/L
ASPARTATE AMINOTRANSFERASE (72 h, time 3 day): 79 u/L
BLOOD UREA NITROGEN (72 h, time 3 day): 14.67 mg/dL
CARBON DIOXIDE (72 h, time 3 day): 23.67 mmol/L
CHLORIDE (72 h, time 3 day): 103.67 MEQ/L
CHOLESTEROL (72 h, time 3 day): 67.67 mg/dL
CREATINE PHOSPHOKINASE (72 h, time 3 day): 240.33 u/L
CREATININE (72 h, time 3 day): 0.15 mg/dL
GLUCOSE (72 h, time 3 day): 166.33 mg/dL
LACTATE DEHYDROGENASE (72 h, time 3 day): 139.67 u/L
LIPASE (72 h, time 3 day): 9.33 u/L
PHOSPHORUS (72 h, time 3 day): 13.53 mg/dL
POTASSIUM (72 h, time 3 day): 6.4 MEQ/L
SODIUM (72 h, time 3 day): 147.03 MEQ/L
TOTAL BILIRUBIN (72 h, time 3 day): 0.2 mg/dL
TOTAL PROTEIN (72 h, time 3 day): 5.77 G/DL
URIC ACID (72 h, time 3 day): 1.67 mg/dL
ABSOLUTE BASOPHIL (120 h, time 5 day): 0 CELLS/uL
ABSOLUTE EOSINOPHIL (120 h, time 5 day): 0 CELLS/uL
ABSOLUTE LYMPHOCYTE (120 h, time 5 day): 17243.67 CELLS/uL
ABSOLUTE MONOCYTE (120 h, time 5 day): 226 CELLS/uL
ABSOLUTE SEGMENTED NEUTROPHIL (120 h, time 5 day): 1697 CELLS/uL
BASOPHIL (120 h, time 5 day): 0%
EOSINOPHIL (120 h, time 5 day): 0%
ERYTHROCYTE COUNT (120 h, time 5 day): 5.34 x10E6/uL
HEMATOCRIT (120 h, time 5 day): 34.37%
HEMOGLOBIN (120 h, time 5 day): 13.8 G/DL
LEUKOCYTE COUNT (120 h, time 5 day): 19.17 x10E3/uL
LYMPHOCYTE (120 h, time 5 day): 89.67%
MEAN CORPUSCULAR HEMOGLOBIN (120 h, time 5 day): 25.9 pg
MEAN CORPUSCULAR HEMOGLOBIN CONCENTRATION (120 h, time 5 day): 40.17 G/DL
MEAN CORPUSCULAR VOLUME (120 h, time 5 day): 64.4 fL
MONOCYTE (120 h, time 5 day): 1.33%
NEUTROPHIL (120 h, time 5 day): 9%
NUCLEATED RED BLOOD CELLS (120 h, time 5 day): 0 /100WBC
PLATELET COUNT (120 h, time 5 day): 1415 x10E3/uL
ALANINE AMINOTRANSFERASE (120 h, time 5 day): 63.33 u/L
ALBUMIN (120 h, time 5 day): 4.27 G/DL
ALKALINE PHOSPHATASE (120 h, time 5 day): 350 u/L
ASPARTATE AMINOTRANSFERASE (120 h, time 5 day): 91 u/L
BLOOD UREA NITROGEN (120 h, time 5 day): 15.33 mg/dL
CARBON DIOXIDE (120 h, time 5 day): 21.67 mmol/L
CHLORIDE (120 h, time 5 day): 103.33 MEQ/L
CHOLESTEROL (120 h, time 5 day): 77 mg/dL
CREATINE PHOSPHOKINASE (120 h, time 5 day): 195 u/L
CREATININE (120 h, time 5 day): 0.2 mg/dL
GLUCOSE (120 h, time 5 day): 155.67 mg/dL
LACTATE DEHYDROGENASE (120 h, time 5 day): 131 u/L
LIPASE (120 h, time 5 day): 10.67 u/L
PHOSPHORUS (120 h, time 5 day): 13.77 mg/dL
POTASSIUM (120 h, time 5 day): 6.85 MEQ/L
SODIUM (120 h, time 5 day): 145.9 MEQ/L
TOTAL BILIRUBIN (120 h, time 5 day): 0.17 mg/dL
TOTAL PROTEIN (120 h, time 5 day): 5.93 G/DL
URIC ACID (120 h, time 5 day): 1.7 mg/dL
